Ends that are not written are not given here.
Tests used:
Conditions in all cases: 24 h
C. auris = type: cell-based, Candida auris
Protocol: (§1) The antifungal activity was determined according to the “Clinical and Laboratory Standards Institute” guidelines M27-A3 broth microdilution assay with modifications (turbidimetric detection) [29, 31]. Based on the cell density measurements, the minimal inhibitory concentration (MIC) was derived from a Lambert–Pearson plot [32].

C. albicans biofilm = type: cell-based, Candida albicans
Protocol: (§2) Biofilms were basically formed and analyzed as described previously [31, 32, 33]. In brief, 2.5 × 10^3 yeast cells were seeded in 200 µL RPMI-1640 medium supplemented with L-glutamine in flat-bottomed, 96-well polystyrene microtiter plates (Sarstedt AG & Co. KG, Nümbrecht, Germany) and incubated at 37 °C without agitation for 24 h. The effect of the peptides on the biofilm formation was tested at different concentrations. […] Planktonic cells were removed with the supernatant, and the mature biofilms were washed twice with 200 µL water. Subsequently, the biofilms were stained with 200 µL of a 0.1% (w/v) crystal violet solution for 15 min. The supernatant was removed, and the biofilms were washed twice with 200 µL water to eliminate excess crystal violet. The stained biofilms were air dried for 24 h at 25 °C and finally destained using 200 µL of 30% acetic acid (15 min, 25 °C). The supernatant was transferred to a fresh 96-well plate, and the absorbance at 560 nm was measured using a Tecan infinite M200 microplate reader to quantify the biofilm biomass. The curve was fitted with a nonlinear regression with the dose-response nonlinear Hill equation.

C. albicans = type: cell-based, Candida albicans
Protocol: as §1

C. auris biofilm = type: cell-based, Candida auris
Protocol: as §2

Pseudomonas aeruginosa = type: cell-based
Protocol: The OD 600 nm of an overnight culture of Pseudomonas aeruginosa was determined and adjusted to 0.1 in Mueller–Hinton broth and, afterwards, diluted 1:4. […] After a 24 h incubation at 37 °C and a 5% CO2 atmosphere, OD 600 nm was determined using a Tecan microplate reader M infinite 200. All tests were performed in triplicate.

C. parapsilosis biofilm = type: cell-based, Candida parapsilosis
Protocol: as §2

C. parapsilosis = type: cell-based, Candida parapsilosis
Protocol: as §1

KKKPTKK [Nv-p3] was tested, and the “Antifungal Activity MIC” value (C. auris) was “˃100 µg/mL”, the “Antibiofilm Activity IC50” value (C. albicans biofilm) was 57.5 µg/mL and the “Antifungal Activity MIC” value (C. albicans) was “˃100 µg/mL”. The “Antibiofilm Activity IC50” value (C. auris biofilm) was 57.5 µg/mL, the MIC (Pseudomonas aeruginosa) was >100 µg/mL and the “Antibiofilm Activity IC50” value (C. parapsilosis biofilm) was 84.4 µg/mL. The “Antifungal Activity MIC” value (C. parapsilosis) was “˃100 µg/mL”.

From publication PMC9968088, “Identification and Characterization of Three New Antimicrobial Peptides from the Marine Mollusk Nerita versicolor (Gmelin, 1791)” (International Journal of Molecular Sciences, 2023)
